The results in this text go back to PubChem BioAssay AID2305 (GlaxoSmithKline (GSK), 2010).

The test concerns P. falciparum 3D7 growth, pLDH absorbance. The test is described as follows: blood-stage malaria parasite growth potency – strain 3D7, dose response (AID 2305).
Usually IC50 stands for the concentration that inhibits the measured activity by half. Read a high IC50 as lower potency. Turning to `COc1ccc(C2SCC(=O)N2CCc2ccc(OC)c(OC)c2)cc1` (stereo not drawn), the IC50 turned out to be 310 nM.
Next, `c1cncc(-c2cc(N3CCc4ccccc4C3)nc(-c3ccncc3)n2)c1`: 40 nM.
As for `Cc1cc(-c2cc(Cl)ccc2Cl)no1`, the IC50 stood at 170 nM. Compared with the last compound, the IC50 is about 4.2-fold higher.
The compound `COc1ccc(C=NNc2nc3ccccc3[nH]2)cc1O` had a half-maximal inhibitory concentration (IC50) of 920 nM.
As for `CCOC(=O)c1cnc2cc(N3CCCC3)c(Cl)cc2c1OCC`, the IC50 is 110 nM. Compared with the last compound, the IC50 is about 8.4-fold lower.
For `CC(C)C[C@H]1c2[nH]c3ccc(Cl)cc3c2CCN1C(=O)CCc1ccccc1`, the concentration for half-maximal inhibition (IC50) stood at 880 nM.
Take `O=C(NCCCCN1CCC(c2ccc3ccccc3c2O)CC1)c1ccc(-c2ccc(Cl)cc2)cc1`: the concentration for half-maximal inhibition (IC50) is 180 nM.
Then `O=C1OC(c2ccccc2)(c2ccccc2)CN1C1CCN(Cc2ccc(O)c(Cl)c2)C1` (stereo not drawn), with 960 nM; and `COc1ccc2ncc(Cl)c([C@@H](O)CN3CCC(NCc4cc5c(cn4)OCCO5)CC3)c2c1`, with 60 nM.
In turn, `Cc1cc(NN=Cc2ccccc2[N+](=O)[O-])c2cccc(C)c2n1` yielded an IC50 of 550 nM.
Then `COc1ccc2nccc([C@@H](O)CN3CCC(NCc4cc5oc(=O)[nH]c5cc4F)CC3)c2c1`, with 770 nM; and `O=C(Nc1ccc(Cn2ncc(N3CCCNCC3)c(Cl)c2=O)cc1)Nc1cc(C(F)(F)F)cc(C(F)(F)F)c1`, with 590 nM.
The compound `Cc1cc(C2CCN(CCCCNC(=O)c3ccc(-c4ccc(C#N)cc4)cc3)CC2)c(C)cc1O` returned an IC50 of 850 nM. The IC50 values of the last two compounds are within 1.5-fold of each other.
Then `COc1ccc2nccc([C@@H](O)CN3CCC(NCc4cc5ccc(Cl)cc5[nH]4)CC3)c2c1`, with 120 nM; and `COc1ccc(-c2ccc(NC(=O)c3cccc(Cl)c3)cc2)cc1CN(C)CCO`, with 710 nM; and `CCN(CC)CCN(Cc1ccc(-c2ccc(C(F)(F)F)cc2)cc1)C(=O)Cn1c(CCc2ccc(F)c(F)c2F)nc(=O)c2ccc(F)cc21`, with 740 nM.
In turn, `COc1cc(Cc2cnc(N)nc2N)cc(OCc2cccc(C(=O)O)c2)c1OC` showed an IC50 of 830 nM.
Next, `COc1ccc(C(=O)[C@H]2C[C@@H]2CN2CC=C(c3c[nH]c4ccccc34)CC2)cc1`: 530 nM; `Cc1ccc(CN2CCN(Cc3cccc(NC(=O)c4cccs4)c3)CC2)cc1C`: 1030 nM; `C[C@H](NC(=O)c1c(CN2CCC(N3CCCCC3=O)CC2)c(-c2cccs2)nc2ccccc12)C1CCCCC1`: 900 nM.
`COc1cc(Cc2cnc(N)nc2N)cc(OCCNC(=O)OCc2ccccc2)c1OC` displayed a half-inhibitory concentration (IC50) of 920 nM.
Next, `O=C(Nc1cccc(CN2CCN(Cc3ccc(O)cc3)CC2)c1)c1ccc(-c2ccccc2)cc1`: 250 nM; `O=C(Nc1ccccc1)N(Cc1ccc(-c2ccc(CNCc3ccc4c(c3)OCO4)cc2)cc1)C1CCN(Cc2ccccc2)CC1`: 570 nM; `CCCCSc1c(CNCCCCCCNCc2ccc3ccccc3c2SCCCC)ccc2ccccc12`: 1000 nM.
`CCc1ccc(CN2CCC(NC(=O)c3ccc(-c4ccc(N(C)C)cc4)s3)CC2)cc1` returned an IC50 of 1210 nM. The IC50 values of the last two compounds are within 1.5-fold of each other.
In the case of `Cc1ccc(S(=O)Cc2ccc(Cl)cc2)cc1` (stereo not drawn), the half-maximal inhibitory concentration (IC50) came out at 200 nM.
Next, `COC1(C)Oc2ccc3cccc([N+](=O)[O-])c3c2C1=O` (stereo not drawn): 630 nM.
`COc1ccc(NC(=O)NC2CCN(CCCOc3cc(C)nc4ccccc34)CC2)cc1OC` displayed a half-maximal inhibitory concentration (IC50) of 1280 nM. This IC50 is about 2-fold higher than that of the compound before.
Next, `COc1cccc(C(=O)C2CC2CN2CC=C(c3c[nH]c4ccc(OC)nc34)CC2)c1` (stereo not drawn): 530 nM.
`Cc1cc(Nc2ncc(Cl)c(Nc3ccccc3C(N)=O)n2)n[nH]1` came in with an IC50 of 810 nM.
As to `Cc1cccc2[nH]c(-c3ccc(-c4ccc(NC(=O)NCc5cccc(F)c5)cc4)cc3)nc12`, the IC50 was 1300 nM.
Next, `CN1CCN(CCCN(Cc2ccc(-c3cccc(CNCc4ccc5c(c4)OCO5)c3)cc2)C(=O)Nc2ccccc2)CC1`: 180 nM; `O=C(Nc1ccc(F)c(F)c1)c1ccc(CN2CCCN(Cc3cccc(O)c3)CC2)cc1`: 840 nM.
In turn, `COc1ccc(-c2ccc(NC(=O)c3ccc(Cl)cc3)cc2)cc1CN1CCC(O)CC1` yielded an IC50 of 1090 nM. This IC50 and that of the compound before are within 1.5-fold of each other.
`Cc1cccc2[nH]c(-c3ccc(-c4ccc(NC(=O)Nc5ccc(Cl)cc5)cc4)s3)nc12` showed an IC50 of 150 nM.
Then `O=S(=O)(c1ccc(Oc2ccccc2)cc1)N(CCC(O)(C(F)(F)F)C(F)(F)F)Cc1cccc(O)c1`, with 490 nM; and `OC(COCc1ccc(-c2ccccc2)cc1)CN1CCCCC1` (stereo not drawn), with 270 nM.
`CN1CC[C@@H](Oc2cc(Nc3nc(-c4ccc(C#N)cc4)cs3)ccc2Cl)C1` showed an IC50 of 820 nM.
Then `C=CCOC(=O)N1CCC(CNCc2cccc(-c3cccc(-c4nc5ccc(F)cc5[nH]4)c3)c2)C1` (stereo not drawn), with 210 nM; and `CC(C)(C)COc1ccc2c(N)n[nH]c2c1`, with 790 nM; and `Cc1cc(C2CCN(CCCCNC(=O)c3ccc(NC(=O)c4ccc(Cl)cc4)cc3)CC2)c(C)cc1OCc1ccncc1`, with 500 nM.
Then `CCOC(=O)c1ccc(NC(=O)Nc2cccc(-c3ccc(-c4nc5ccccc5[nH]4)cc3)c2)cc1`, with 210 nM; and `O=c1ccc(CNc2nc(NCCc3ccccc3)nc3cc(Cl)ccc23)c[nH]1`, with 300 nM; and `Cc1cccc2[nH]c(-c3cccc(-c4ccc(C(=O)N5CCCCC5C(C)O)cc4)c3)nc12` (stereo not drawn), with 370 nM.
Next, `O=C(/C=C/c1ccc(Cl)c(Cl)c1)NC1CCN(CCNC(=O)c2cccc(Cl)c2)CC1`: 550 nM; `C=CCN1CCC(N(Cc2cccc(Oc3ccccc3)c2)C(=O)C(c2ccccc2)c2ccccc2)CC1`: 1140 nM.
Take `CN1CC=C(c2c[nH]c3ccc(Br)cc23)CC1`: the IC50 was 1190 nM. The IC50 values of the last two compounds are within 1.5-fold of each other.
Next, `COC(=O)CCCOc1cc(Cc2cnc(N)nc2N)cc(OC)c1OC`: 770 nM; `COc1ccccc1N1CCN(CCCCNC(=O)c2ccc(NC(=O)c3cc(Cl)cc(Cl)c3)cc2)CC1`: 460 nM; `O=S(=O)(Nc1cccc(CCN2CCC(N3CCCCC3)CC2)c1)c1ccc(Cl)cc1`: 920 nM.
Next, `O=C(NCCCCCN1CCC(c2c[nH]c3ccccc23)CC1)Nc1ccc(Br)cc1`: 920 nM.
`Cc1[nH]c2ccc(O)cc2c1C1CCN(CC2CCN(C(=O)/C=C/c3ccc(Cl)c(Cl)c3)CC2)CC1` gave a 50% inhibitory concentration (IC50) of 1000 nM.
Compound `COc1ccc(/C=C/c2ccc(-c3c(C)[nH]c(C)c(Cl)c3=O)cc2)cc1OC` yielded a 50% inhibitory concentration (IC50) of 280 nM. This IC50 lies about 3.6-fold lower than the previous one.
Then `CN1CCC(N2CCC(Oc3cccc(C(=O)NCCCC4CCCC4)c3)CC2)CC1`, with 840 nM; and `CCCCCCCN1CC[C@@H](CCCc2ccnc3ccc(OC)cc23)[C@@H](CNC)C1`, with 210 nM; and `O=C(Nc1cccnc1)c1cc(-c2cccnc2)nc2ccc(Cl)cc12`, with 1060 nM.
In the case of `CCN(CC)c1ccccc1CNC(=O)c1cc(Cl)c(N)cc1OC`, the IC50 came to 210 nM.
Next, `OCc1c(Cl)cc(Cl)cc1CNCCCNc1nc2ccccc2[nH]1`: 740 nM; `CC(C)NCc1ccc(-c2ccc(NS(=O)(=O)c3cccc4cccnc34)cc2)cc1`: 810 nM.
Then `OC(c1ccc(Cl)cc1)(c1ccc(Cl)cc1)C(c1ccc(Cl)cc1)n1ccnc1` (stereo not drawn), with 860 nM.
With `N=C(N)c1ccc(NC(=O)c2cc(Sc3ccc(O)c(C(=O)Nc4ccc(C(=N)N)cc4)c3)ccc2O)cc1`, the IC50 was 120 nM.
In the case of `Cc1cc(Nc2cccc(C(F)(F)F)c2)nc(Nc2cccc(C(F)(F)F)c2)n1`, the IC50 amounted to 640 nM. This IC50 lies about 5.3-fold higher than the previous one.
Then `C#CCOc1ccccc1CN1CCC(N2CCc3cc(NC(=O)c4cc(C)on4)ccc32)C1` (stereo not drawn), with 680 nM.
